Assay results reported in patent publication US6274715A, “Tricyclic erythromycin derivatives” (priority 1997, dated 2001).
In brackets after ≈: the same amount, converted by molar mass.

What was measured:
Format in all cases: cell-based
[1] = tested on: MYCOBACTERIUM SMEGMATIS ATCC 114; experiment: In vitro antibacterial activity, MIC, BHI agar dilution; conditions: M. smegmatis ATCC 114, unit assumed
[2] = tested on: PSEUDOMONAS CEPACIA 296I; experiment: as above; conditions: P. cepacia 296I, unit assumed
[3] = tested on: KLEBSIELLA PNEUMONIAE ATCC 8045; experiment: as above; conditions: K. pneumoniae ATCC 8045, unit assumed
[4] = tested on: PSEUDOMONAS AERUGINOSA DPHD-5263; experiment: as above; conditions: P. aeruginosa DPHD-5263, unit assumed
[5] = tested on: ESCHERICHIA COLI JUHL; conditions: E. coli JUHL; BHI agar; unit assumed
[6] = tested on: PSEUDOMONAS AERUGINOSA DPHD-2862; experiment: In vitro antibacterial activity, MIC, BHI agar dilution; conditions: P. aeruginosa DPHD-2862, unit assumed
[7] = tested on: STAPHYLOCOCCUS AUREUS NCTC10649M; experiment: as above; conditions: S. aureus NCTC10649M, unit assumed
[8] = tested on: ACINETOBACTER CALCOACETICUS CMX 669; experiment: as above; conditions: A. calcoaceticus CMX 669, unit assumed
[9] = tested on: ESCHERICHIA COLI SS; experiment: as above; conditions: E. coli SS, unit assumed
[10] = tested on: STAPHYLOCOCCUS AUREUS A5177; experiment: as above; conditions: S. aureus A5177, unit assumed
[11] = tested on: STAPHYLOCOCCUS AUREUS CMX 642A; experiment: as above; conditions: S. aureus CMX 642A, unit assumed
[12] = tested on: STAPHYLOCOCCUS EPIDERMIDIS 3519; conditions: S. epidermidis 3519; BHI agar; unit assumed
[13] = tested on: ESCHERICHIA COLI H560; experiment: In vitro antibacterial activity, MIC, BHI agar dilution; conditions: E. coli H560, unit assumed
[14] = tested on: STREPTOCOCCUS PYOGENES 930; experiment: as above; conditions: S. pyogenes 930, unit assumed
[15] = tested on: STAPHYLOCOCCUS AUREUS ATCC 6538P; experiment: as above; conditions: S. aureus ATCC 6538P, 35-37° C., 20 to 24 hours, unit assumed
[16] = tested on: PSEUDOMONAS AERUGINOSA 5007; experiment: as above; conditions: P. aeruginosa 5007, unit assumed
[17] = tested on: ESCHERICHIA COLI DC-2; experiment: as above; conditions: E. coli DC-2, unit assumed
[18] = tested on: STREPTOCOCCUS BOVIS A-5169; experiment: as above; conditions: S. bovis A-5169, unit assumed
[19] = tested on: STAPHYLOCOCCUS AUREUS A-5278; experiment: as above; conditions: S. aureus A-5278, unit assumed
[20] = tested on: STAPHYLOCOCCUS AUREUS 1775; experiment: as above; conditions: S. aureus 1775, unit assumed
[21] = tested on: CANDIDA ALBICANS CCH 442; experiment: as above; conditions: C. albicans CCH 442, unit assumed
[22] = tested on: PROVIDENCIA STUARTII CMX 640; conditions: P. stuartii CMX 640; BHI agar; unit assumed
[23] = tested on: ESCHERICHIA COLI KNK 437; conditions: E. coli KNK 437; BHI agar; unit assumed
[24] = tested on: PSEUDOMONAS AERUGINOSA K799/61; experiment: In vitro antibacterial activity, MIC, BHI agar dilution; conditions: P. aeruginosa K799/61, unit assumed
[25] = tested on: M[…] ATCC 4698; experiment: as above; conditions: M. luteus ATCC 4698, unit assumed
How it was run: (§1)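 BHI agar dilution, 12 plates; inoculum 1:100 (1:10 slow-growing strains), Steers replicator; 35-37° C, 20-24 h. MIC = lowest conc. with no growth/slight haze/sparse colonies vs growth control, visual read. Erythromycin A reference plate.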

[26] = tested on: EN[…] ATCC 8043; experiment: as above; conditions: E. faecium ATCC 8043, unit assumed
How it was run: as §1

[27] = tested on: M[…] ATCC 9341; experiment: as above; conditions: M. luteus ATCC 9341, unit assumed
How it was run: as §1

[28] = tested on: STR[…] 508; experiment: as above; conditions: S. agalactiae CMX 508, unit assumed
How it was run: as §1

[29] = tested on: PSEUDOMONAS AERUGINOSA BMH10; experiment: as above; conditions: P. aeruginosa BMH10, unit assumed
[30] = tested on: STAPHYLOCOCCUS AUREUS CMX 553; experiment: as above; conditions: S. aureus CMX 553, unit assumed
[31] = tested on: PSEUDOMONAS AERUGINOSA K799/WT; experiment: as above; conditions: P. aeruginosa K799/WT, unit assumed
[32] = tested on: ENTEROBACTER AEROGENES ATCC 13048; experiment: as above; conditions: E. aerogenes ATCC 13048, unit assumed
[33] = tested on: STREPTOCOCCUS PYOGENES PIU 2548; experiment: as above; conditions: S. pyogenes PIU 2548, unit assumed
[34] = tested on: STREPTOCOCCUS PYOGENES EES61; experiment: as above; conditions: S. pyogenes EES61, unit assumed

Row | Compound | MIC [1] [µg/mL] | MIC [2] [µg/mL] | MIC [3] [µg/mL] | MIC [4] [µg/mL] | MIC [5] [µg/mL] | MIC [6] [µg/mL] | MIC [7] [µg/mL] | MIC [8] [µg/mL] | MIC [9] [µg/mL] | MIC [10] [µg/mL] | MIC [11] [µg/mL] | MIC [12] [µg/mL] | MIC [13] [µg/mL] | MIC [14] [µg/mL] | MIC [15] [µg/mL] | MIC [16] [µg/mL] | MIC [17] [µg/mL] | MIC [18] [µg/mL] | MIC [19] [µg/mL] | MIC [20] [µg/mL] | further results
1 | CC[C@H]1OC(=O)[C@H](C)C(=O)[C@H](C)[C@@H](O[C@@H]2O[C@H](C)C[C@H](N(C)C)[C@H]2O)[C@](C)(OC)C[C@@H](C)C2=N[C@H](COCc3ccc(C(=O)OC)cc3)CN3C(=O)O[C@@]1(C)[C@H]3[C@H]2C [Example 84] | 0.78 (≈ 0.956 µM) | > 100 | > 100 | > 100 | > 100 | > 100 | 0.2 (≈ 0.245 µM) | > 100 | 1.56 (≈ 1.91 µM) | 0.2 (≈ 0.245 µM) | 0.2 (≈ 0.245 µM) | 0.39 (≈ 0.478 µM) | > 100 | 100 (≈ 123 µM) | 0.2 (≈ 0.245 µM) | > 100 | > 100 | ≤ 0.005 | > 100 | > 100 | MIC [21]: > 100 µg/mL; MIC [22]: > 100 µg/mL; MIC [23]: > 100 µg/mL; MIC [24]: 3.1 µg/mL (≈ 3.8 µM); MIC [25]: 0.39 µg/mL (≈ 0.478 µM); MIC [26]: 0.05 µg/mL (≈ 0.0613 µM); MIC [27]: 0.1 µg/mL (≈ 0.123 µM); MIC [28]: 0.02 µg/mL (≈ 0.0245 µM); MIC [29]: > 100 µg/mL; MIC [30]: 0.2 µg/mL (≈ 0.245 µM); MIC [31]: > 100 µg/mL; MIC [32]: > 100 µg/mL; MIC [33]: 0.2 µg/mL (≈ 0.245 µM); MIC [34]: 0.02 µg/mL (≈ 0.0245 µM)
2 | CC[C@H]1OC(=O)[C@H](C)C(=O)[C@H](C)[C@@H](O[C@@H]2O[C@H](C)C[C@H](N(C)C)[C@H]2O)[C@](C)(OC)C[C@@H](C)C2=N[C@H](COCc3ccnc4ccccc34)CN3C(=O)O[C@@]1(C)[C@H]3[C@H]2C [Example 85] | 3.1 (≈ 3.83 µM) | 100 (≈ 124 µM) | > 100 | > 100 | > 100 | > 100 | 0.39 (≈ 0.482 µM) | 100 (≈ 124 µM) | 0.78 (≈ 0.964 µM) | 0.2 (≈ 0.247 µM) | 0.2 (≈ 0.247 µM) | 0.2 (≈ 0.247 µM) | > 100 | 100 (≈ 124 µM) | 0.2 (≈ 0.247 µM) | > 100 | > 100 | 0.01 (≈ 0.0124 µM) | > 100 | > 100 | MIC [21]: > 100 µg/mL; MIC [22]: > 100 µg/mL; MIC [23]: > 100 µg/mL; MIC [24]: 3.1 µg/mL (≈ 3.83 µM); MIC [25]: 0.78 µg/mL (≈ 0.964 µM); MIC [26]: 0.02 µg/mL (≈ 0.0247 µM); MIC [27]: 0.02 µg/mL (≈ 0.0247 µM); MIC [28]: 0.02 µg/mL (≈ 0.0247 µM); MIC [29]: > 100 µg/mL; MIC [30]: 0.2 µg/mL (≈ 0.247 µM); MIC [31]: > 100 µg/mL; MIC [32]: > 100 µg/mL; MIC [33]: 0.1 µg/mL (≈ 0.124 µM); MIC [34]: ≤ 0.005 µg/mL
3 | CC[C@H]1OC(=O)[C@H](C)C(=O)[C@H](C)[C@@H](O[C@@H]2O[C@H](C)C[C@H](N(C)C)[C@H]2O)[C@](C)(OC)C[C@@H](C)C2=N[C@H](COCCN3CCOCC3)CN3C(=O)O[C@@]1(C)[C@H]3[C@H]2C [Example 87] | 12.5 (≈ 16 µM) | > 100 | > 100 | > 100 | > 100 | > 100 | 1.56 (≈ 2 µM) | > 100 | 1.56 (≈ 2 µM) | 1.56 (≈ 2 µM) | 1.56 (≈ 2 µM) | 1.56 (≈ 2 µM) | > 100 | > 100 | 1.56 (≈ 2 µM) | > 100 | > 100 | 0.05 (≈ 0.064 µM) | > 100 | > 100 | MIC [21]: > 100 µg/mL; MIC [22]: > 100 µg/mL; MIC [23]: > 100 µg/mL; MIC [24]: 3.1 µg/mL (≈ 3.97 µM); MIC [25]: 1.56 µg/mL (≈ 2 µM); MIC [26]: 0.39 µg/mL (≈ 0.499 µM); MIC [27]: 0.1 µg/mL (≈ 0.128 µM); MIC [28]: 0.2 µg/mL (≈ 0.256 µM); MIC [29]: > 100 µg/mL; MIC [30]: 1.56 µg/mL (≈ 2 µM); MIC [31]: > 100 µg/mL; MIC [32]: > 100 µg/mL; MIC [33]: 3.1 µg/mL (≈ 3.97 µM); MIC [34]: 0.2 µg/mL (≈ 0.256 µM)
4 | CCC1OC(=O)C(C)C(=O)C(C)C(OC2OC(C)CC(N(C)C)C2O)C(C)(OC)CC(C)C2=NC(CCOc3ccccc3)CN3C(=O)OC1(C)C3C2C (centres unmarked) [Example 91] | 1.56 (≈ 2.06 µM) | > 100 | > 100 | > 100 | > 100 | > 100 | 0.78 (≈ 1.03 µM) | > 100 | 3.1 (≈ 4.09 µM) | 0.78 (≈ 1.03 µM) | 0.78 (≈ 1.03 µM) | 0.78 (≈ 1.03 µM) | > 100 | 100 (≈ 132 µM) | 0.78 (≈ 1.03 µM) | > 100 | > 100 | 0.01 (≈ 0.0132 µM) | > 100 | > 100 | MIC [21]: > 100 µg/mL; MIC [22]: > 100 µg/mL; MIC [23]: > 100 µg/mL; MIC [24]: 12.5 µg/mL (≈ 16.5 µM); MIC [25]: 0.39 µg/mL (≈ 0.515 µM); MIC [26]: 0.1 µg/mL (≈ 0.132 µM); MIC [27]: 0.1 µg/mL (≈ 0.132 µM); MIC [28]: 0.05 µg/mL (≈ 0.066 µM); MIC [29]: > 100 µg/mL; MIC [30]: 0.78 µg/mL (≈ 1.03 µM); MIC [31]: > 100 µg/mL; MIC [32]: > 100 µg/mL; MIC [33]: 0.39 µg/mL (≈ 0.515 µM); MIC [34]: 0.05 µg/mL (≈ 0.066 µM)
5 | CCC1OC(=O)C(C)C(=O)C(C)C(OC2OC(C)CC(N(C)C)C2O)C(C)(OC)CC(C)C2=NC(COCc3cc(OC)cc(OC)c3)CN3C(=O)OC1(C)C3C2C (centres unmarked) [Example 100] | 0.78 (≈ 0.954 µM) | 100 (≈ 122 µM) | > 100 | > 100 | > 100 | > 100 | 0.05 (≈ 0.0611 µM) | 100 (≈ 122 µM) | 1.56 (≈ 1.91 µM) | 0.1 (≈ 0.122 µM) | 0.2 (≈ 0.244 µM) | 0.2 (≈ 0.244 µM) | 50 (≈ 61.1 µM) | 100 (≈ 122 µM) | 0.1 (≈ 0.122 µM) | > 100 | > 100 | 0.01 (≈ 0.0122 µM) | > 100 | > 100 | MIC [21]: > 100 µg/mL; MIC [22]: > 100 µg/mL; MIC [23]: > 100 µg/mL; MIC [24]: 1.56 µg/mL (≈ 1.91 µM); MIC [25]: 0.1 µg/mL (≈ 0.122 µM); MIC [26]: 0.01 µg/mL (≈ 0.0122 µM); MIC [27]: < 0.005 µg/mL; MIC [28]: 0.01 µg/mL (≈ 0.0122 µM); MIC [29]: > 100 µg/mL; MIC [30]: 0.1 µg/mL (≈ 0.122 µM); MIC [31]: > 100 µg/mL; MIC [32]: > 100 µg/mL; MIC [33]: 0.2 µg/mL (≈ 0.244 µM); MIC [34]: 0.01 µg/mL (≈ 0.0122 µM)
